In patent publication US10166294B2, “Multifunctional forms of polyoxazoline copolymers and drug compositions comprising the same” (priority 2008, dated 2019):
Several values for one entry are separate records, joined by “and”; a condition that tells them apart may be missing. Equal values may be shown once. Read-outs that look alike come from different tables or passages of the source.

Tests used:
[1] = test system: platinum resistant ovarian cancer cells (A2780/DDPt); conditions: for Days to 3 Times Tumor Weight: median; for T − C (tumor growth delay): median time to 3 times original size, drug group minus control; for Persistence of tumor growth delay profiles: FIGS. 2A and 2B, dotted lines
Procedure: Female athymic (Ncr:Nu) mice were implanted subcutaneously with A2780/DDPt tumor fragments and the tumors were allowed to reach a weight range of 163 to 189 mg. […] One group of animals was treated with cisplatin at a dose of 8 mg/kg. The control group received normal saline. The animals were weighed and the tumors measured twice weekly after administration of the first drug injection.

[2] = test system: human colorectal cancer cells (HT-29); conditions: for Tumor Regression Complete / Tumor Regression Partial: n=10 mice; for Tumor Regression Complete: complete: unpalpable; for Tumor Regression Partial: partial: <50% of size on day 1; for T − C (tumor growth delay): median time to 2 times original size, drug group minus control; for Days to 2 Times Tumor Weight: median
Procedure: (§1) Female athymic (Ncr:Nu) mice were implanted subcutaneously with HT-29 tumor fragments and the tumors were allowed to reach a weight range of 162 to 188 mg. […] The control group received normal saline. The animals were weighed and the tumors measured twice weekly after administration of the first drug injection.

[3] = test system: oropharyngeal carcinoma cancer cells (KB)
Procedure: as §1, with “KB” for “HT-29”, “160” for “162”, “190” for “188”

[4] = 40 mg/kg i.v. every fourth day x3
[5] = 60 mg/kg i.v. every fourth day x3
[6] = 90 mg/kg i.v. every fourth day x3
[7] = 40, 60 or 90 mg/kg i.v. every fourth day x3
[8] = all doses (40, 60, 90 mg/kg i.v.)
[9] = any of the doses (40, 60, 90 mg/kg)

In the case of N.N.[Cl][Pt][Cl] [Cisplatin], the “Days to 3 Times Tumor Weight” value ([1]; 8 mg/kg) is reported as 8.9 days and the “T − C (tumor growth delay)” value ([1]; 8 mg/kg) is reported as 0.5 days.

CCc1c2c(nc3ccc(OC(=O)N4CCC(N5CCCCC5)CC4)cc13)-c1cc3c(c(=O)n1C2)COC(=O)[C@]3(O)CC [Irinotecan] was tested, and the “Tumor Regression Complete” value [2, 4] was 0, the “Tumor Regression Partial” value [2, 4] was 0 and the “T − C (tumor growth delay)” value ([2]; 40 mg/kg) was 8.8 days. For the same compound, the “Days to 2 Times Tumor Weight” value [2, 5] was 21.4 days, the “Tumor Regression Complete” value [2, 5] was 0 and the “Tumor Regression Partial” value [2, 5] was 0. For the same compound, the “Tumor Regression Complete” value [2, 6] was 0, the “Tumor Regression Partial” value [2, 6] was 0 and the “Decrease in tumor growth compared to the control group” value ([2]; 40, 60, 90 mg/kg groups) was “did not show a statistically significant decrease”. For the same compound, the “Maximum loss in body weight” value [2, 7] was 8%, the Tolerability [2, 8] was “well tolerated” and the Tumor regression [2, 9] was “not observed”. For the same compound, the “Days to 3 Times Tumor Weight” value [1, 4] was 13.0 days, the “T − C (tumor growth delay)” value ([1]; 40 mg/kg) was 4.6 days and the “Days to 3 Times Tumor Weight” value [1, 5] was 16.4 days. For the same compound, the “T − C (tumor growth delay)” value ([1]; 60 mg/kg) was 8.0 days, the “Days to 3 Times Tumor Weight” value [1, 6] was 18.6 days and the “T − C (tumor growth delay)” value ([1]; 90 mg/kg) was 10.2 days. The “Decrease in tumor growth compared to the control group” value ([1]; 40, 60, 90 mg/kg groups) was “did not show a statistically significant decrease”, the “Maximum loss in body weight” value [1, 7] was 2% and the “Persistence of tumor growth delay profiles” value [1] was 14 days. The Tolerability [1, 8] was “well tolerated”, the Tolerability [3, 8] was “well tolerated” and the Tumor regression [3, 9] was “not observed”. For the same compound, the “Maximum loss in body weight” value ([3]; mouse, in vivo) was 2%.

With “H-(Irino.HCl)10(EOZ)190-T-Folate [Folate-POZ-irinotecan]” the “Complete tumor regression, share of mice” value ([3]; mouse, in vivo) was 70% and 50%, the “Complete tumor regression, share of treated mice” value ([3]; mouse, in vivo) was > 50% and the “Tumor growth delay (T-C value) compared to irinotecan” value ([3]; mouse, in vivo) was “significantly higher”.

In the case of “H-(Irino.HCl)10(EOZ)200-T-PA [POZ-irinotecan]”, the “Days to 2 Times Tumor Weight” value [2, 4] is reported as 31.4 days, the “Tumor Regression Complete” value [2, 4] is reported as 0 and the “T − C (tumor growth delay)” value ([2]; 40 mg/kg) is reported as 23.4 days. The “Median Duration of Regression” value [2, 5] was 18 days, the “Days to 2 Times Tumor Weight” value [2, 5] was >60.0 days and the “Tumor Regression Complete” value [2, 5] was 1. The “T − C (tumor growth delay)” value ([2]; 60 mg/kg) was >52 days, the “Median Duration of Regression” value [2, 6] was 25 days and the “Days to 2 Times Tumor Weight” value [2, 6] was >60.0 days. The “Tumor Regression Complete” value [2, 6] was 7, the “T − C (tumor growth delay)” value ([2]; 90 mg/kg) was >52 days and the “Tumor growth delay (T-C value) compared to irinotecan” value ([2]; all 3 doses tested, p<0.001) was “significantly higher”. For the same compound, the “Days to 3 Times Tumor Weight” value [1, 4] was 12.7 days, the “T − C (tumor growth delay)” value ([1]; 40 mg/kg) was 4.3 days and the “Days to 3 Times Tumor Weight” value [1, 5] was 20.3 days. The “T − C (tumor growth delay)” value ([1]; 60 mg/kg) was 11.9 days, the “Tumor growth delay (T-C value) compared to irinotecan” value ([1]; 90 mg/kg dose, p<0.001) was “significantly higher” and the “Days to 3 Times Tumor Weight” value [1, 6] was 36.3 days. For the same compound, the “T − C (tumor growth delay)” value ([1]; 90 mg/kg) was 27.9 days and the “Persistence of tumor growth delay profiles” value [1] was “at least 32 days”.
